Results reported in PubChem BioAssay AID256 (DTP/NCI, 2004).
Several values for one entry are separate records, joined by “and”; a condition that tells them apart may be missing. Equal entries are not always repeated. Toxic doses and inconclusive results are not listed.

Test system: CD2F1 mice, L1210 leukemia ip, survival T/C
Experiment: NCI In Vivo Anticancer Drug Screen. Data for tumor model L1210 Leukemia (intraperitoneal) in CD2F1 (CDF1) mice
Details: higher = longer survival
Outline: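 In this screen, transplantable tumors were grown in mice given either the compound or its vehicle. Results were expressed as the treated measurement relative to the control measurement.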

[1] = endpoint: mean survival time, dose: 6.25 mg/kg/injection, schedule: Q01DX009 (ip), vehicle: saline with Tween-80
[2] = endpoint: mean survival time, dose: 25.0 mg/kg/injection, schedule: Q01DX009 (ip), vehicle: saline with Tween-80
[3] = endpoint: mean survival time, dose: 50.0 mg/kg/injection, schedule: Q01DX009 (ip), vehicle: saline with Tween-80
[4] = endpoint: mean survival time, dose: 100.0 mg/kg/injection, schedule: Q01DX009 (ip), vehicle: Klucel (hydroxypropylcellulose) (HPC)
[5] = endpoint: mean survival time, dose: 100.0 mg/kg/injection, schedule: Q04DX003 (ip), vehicle: Klucel (hydroxypropylcellulose) (HPC)
[6] = endpoint: mean survival time, dose: 100.0 mg/kg/injection, schedule: Q01DX001 (ip), vehicle: saline with Tween-80
[7] = endpoint: mean survival time, dose: 200.0 mg/kg/injection, schedule: Q01DX001 (ip), vehicle: saline with Tween-80
[8] = endpoint: mean survival time, dose: 400.0 mg/kg/injection, schedule: Q01DX001 (ip), vehicle: saline with Tween-80
[9] = endpoint: mean survival time, dose: 100.0 mg/kg/injection, schedule: Q04DX003 (ip), vehicle: saline with Tween-80
[10] = endpoint: mean survival time, dose: 200.0 mg/kg/injection, schedule: Q04DX003 (ip), vehicle: saline with Tween-80
[11] = endpoint: mean survival time, dose: 400.0 mg/kg/injection, schedule: Q04DX003 (ip), vehicle: saline with Tween-80
[12] = endpoint: mean survival time, dose: 100.0 mg/kg/injection, schedule: Q01DX009 (ip), vehicle: saline with Tween-80
[13] = endpoint: mean survival time, dose: 200.0 mg/kg/injection, schedule: Q01DX009 (ip), vehicle: saline with Tween-80

## Cc1nn(CCO)c(C)c1N=[N+]([O-])c1c(C)nn(CCO)c1C
endpoint: mean survival time, dose: 3.12 mg/kg/injection, schedule: Q01DX009 (ip), vehicle: Klucel (hydroxypropylcellulose) (HPC)
  T/C: 102 % of control
endpoint: mean survival time, dose: 3.12 mg/kg/injection, schedule: Q01DX009 (ip), vehicle: saline with Tween-80
  T/C: 98 % of control
endpoint: mean survival time, dose: 6.25 mg/kg/injection, schedule: Q01DX009 (ip), vehicle: Klucel (hydroxypropylcellulose) (HPC)
  T/C: 95 % of control
[1]
  T/C: 103 % of control
endpoint: mean survival time, dose: 12.5 mg/kg/injection, schedule: Q01DX009 (ip), vehicle: Klucel (hydroxypropylcellulose) (HPC)
  T/C: 96 % of control
endpoint: mean survival time, dose: 12.5 mg/kg/injection, schedule: Q01DX009 (ip), vehicle: saline with Tween-80
  T/C: 104 % of control
endpoint: mean survival time, dose: 25.0 mg/kg/injection, schedule: Q01DX009 (ip), vehicle: Klucel (hydroxypropylcellulose) (HPC)
  T/C: 95 % of control
[2]
  T/C: 106 % of control
endpoint: mean survival time, dose: 50.0 mg/kg/injection, schedule: Q01DX009 (ip), vehicle: Klucel (hydroxypropylcellulose) (HPC)
  T/C: 101 % of control
[3]
  T/C: 103 % of control
endpoint: mean survival time, dose: 50.0 mg/kg/injection, schedule: Q04DX003 (ip), vehicle: Klucel (hydroxypropylcellulose) (HPC)
  T/C: 113 % of control
[4]
  T/C: 95 % of control
[5]
  T/C: 117 % of control

## BrCCOc1ccccc1
endpoint: mean survival time, dose: 100.0 mg/kg/injection, schedule: Q04DX003 (ip), vehicle: other
  T/C: 108 % of control
endpoint: mean survival time, dose: 200.0 mg/kg/injection, schedule: Q04DX003 (ip), vehicle: other
  T/C: 97 % of control
endpoint: mean survival time, dose: 400.0 mg/kg/injection, schedule: Q04DX003 (ip), vehicle: other
  T/C: 86 % of control

## CCCCCCCCCCCCCCCC[N+]1(CC)CC[N+](CC)(CCCCCCCCCCCCCCCC)CC1 (stereo not drawn)
[5]
  T/C: 96 % of control
endpoint: mean survival time, dose: 200.0 mg/kg/injection, schedule: Q04DX003 (ip), vehicle: Klucel (hydroxypropylcellulose) (HPC)
  T/C: 90 % of control
endpoint: mean survival time, dose: 400.0 mg/kg/injection, schedule: Q04DX003 (ip), vehicle: Klucel (hydroxypropylcellulose) (HPC)
  T/C: 100 % of control

## CN1CCN(c2ccc([N+](=O)[O-])c3no[n+]([O-])c23)CC1
endpoint: mean survival time, dose: 2.5 mg/kg/injection, schedule: Q01DX009 (ip), vehicle: saline with Tween-80
  T/C: 105 % of control and 112 % of control
endpoint: mean survival time, dose: 5.0 mg/kg/injection, schedule: Q01DX009 (ip), vehicle: saline with Tween-80
  T/C: 114 % of control and 108 % of control
endpoint: mean survival time, dose: 5.0 mg/kg/injection, schedule: Q01DX009 (ip), vehicle: saline
  T/C: 123 % of control
endpoint: mean survival time, dose: 10.0 mg/kg/injection, schedule: Q01DX009 (ip), vehicle: saline with Tween-80
  T/C: 116 % of control and 110 % of control
endpoint: mean survival time, dose: 20.0 mg/kg/injection, schedule: Q01DX009 (ip), vehicle: saline with Tween-80
  T/C: 117 % of control and 119 % of control
endpoint: mean survival time, dose: 40.0 mg/kg/injection, schedule: Q01DX009 (ip), vehicle: saline with Tween-80
  T/C: 122 % of control and 103 % of control
endpoint: mean survival time, dose: 80.0 mg/kg/injection, schedule: Q01DX009 (ip), vehicle: saline with Tween-80
  T/C: 121 % of control

## CNC(=S)NNc1ccccc1Cl
endpoint: mean survival time, dose: 12.5 mg/kg/injection, schedule: Q01DX009 (ip), vehicle: other
  T/C: 98 % of control
endpoint: mean survival time, dose: 25.0 mg/kg/injection, schedule: Q01DX009 (ip), vehicle: other
  T/C: 94 % of control
endpoint: mean survival time, dose: 50.0 mg/kg/injection, schedule: Q01DX009 (ip), vehicle: other
  T/C: 88 % of control
endpoint: mean survival time, dose: 100.0 mg/kg/injection, schedule: Q01DX009 (ip), vehicle: other
  T/C: 104 % of control
endpoint: mean survival time, dose: 200.0 mg/kg/injection, schedule: Q01DX009 (ip), vehicle: other
  T/C: 104 % of control

## Cc1cc[n+](-c2c3c(nc4ccccc24)-c2ccccc2C(C)(C)C3)cc1
endpoint: mean survival time, dose: 25.0 mg/kg/injection, schedule: Q04DX003 (ip), vehicle: saline sonified
  T/C: 96 % of control
endpoint: mean survival time, dose: 50.0 mg/kg/injection, schedule: Q04DX003 (ip), vehicle: saline sonified
  T/C: 102 % of control
[6]
  T/C: 96 % of control

## CCCCCCCCCC/C(C)=N/Nc1ccc([N+](=O)[O-])cc1[N+](=O)[O-]
[6]
  T/C: 94 % of control
[7]
  T/C: 89 % of control
[8]
  T/C: 93 % of control

## Nc1ccn(C2OC(CO)C(OP(=O)(O)O)C2O)c(=O)n1 (stereo not drawn)
endpoint: mean survival time, dose: 4.4 mg/kg/injection, schedule: Q03HX024 (ip), vehicle: saline
  T/C: 229 % of control
endpoint: mean survival time, dose: 8.7 mg/kg/injection, schedule: Q03HX024 (ip), vehicle: saline
  T/C: 252 % of control
endpoint: mean survival time, dose: 17.4 mg/kg/injection, schedule: Q03HX024 (ip), vehicle: saline
  T/C: 296 % of control
endpoint: mean survival time, dose: 34.8 mg/kg/injection, schedule: Q03HX024 (ip), vehicle: saline
  T/C: 111 % of control
endpoint: mean survival time, dose: 200.0 mg/kg/injection, schedule: Q01DX009 (oral), vehicle: saline
  T/C: 159 % of control
endpoint: mean survival time, dose: 400.0 mg/kg/injection, schedule: Q01DX009 (oral), vehicle: saline
  T/C: 175 % of control

## NC(=O)CC(C1SCCCS1)N1C(=O)OC2C(O)C(CO)OC21 (stereo not drawn)
endpoint: mean survival time, dose: 10.94 mg/kg/injection, schedule: Q01DX005 (ip), vehicle: water
  T/C: 100 % of control
endpoint: mean survival time, dose: 21.88 mg/kg/injection, schedule: Q01DX005 (ip), vehicle: water
  T/C: 93 % of control
endpoint: mean survival time, dose: 43.75 mg/kg/injection, schedule: Q01DX005 (ip), vehicle: water
  T/C: 98 % of control
endpoint: mean survival time, dose: 87.5 mg/kg/injection, schedule: Q01DX005 (ip), vehicle: water
  T/C: 100 % of control
endpoint: mean survival time, dose: 175.0 mg/kg/injection, schedule: Q01DX005 (ip), vehicle: water
  T/C: 90 % of control

## CC1([CH2][Hg][Cl])Cc2ccccc2O1 (stereo not drawn)
endpoint: mean survival time, dose: 1.56 mg/kg/injection, schedule: Q01DX009 (ip), vehicle: saline with Tween-80
  T/C: 91 % of control
endpoint: mean survival time, dose: 3.13 mg/kg/injection, schedule: Q01DX009 (ip), vehicle: saline with Tween-80
  T/C: 94 % of control
[1]
  T/C: 101 % of control

## OC1CCCCC1O (stereo not drawn)
[9]
  T/C: 101 % of control
[10]
  T/C: 100 % of control
[11]
  T/C: 103 % of control

## CC(C)(C)CC(C)(C)c1ccc(OCCOc2ccc(CC(=S)N3CCOCC3)cc2)cc1
[4]
  T/C: 96 % of control
[9]
  T/C: 93 % of control
endpoint: mean survival time, dose: 200.0 mg/kg/injection, schedule: Q01DX009 (ip), vehicle: Klucel (hydroxypropylcellulose) (HPC)
  T/C: 95 % of control
[10]
  T/C: 95 % of control
endpoint: mean survival time, dose: 400.0 mg/kg/injection, schedule: Q01DX009 (ip), vehicle: Klucel (hydroxypropylcellulose) (HPC)
  T/C: 98 % of control
[11]
  T/C: 87 % of control

## CCCCCCCCCCCCOC(=O)C[n+]1cccc(C(=O)Nc2ccc(Cl)cc2)c1
[2]
  T/C: 101 % of control
[3]
  T/C: 96 % of control
[9]
  T/C: 103 % of control

## COc1ccc(OC)c(NC(=O)NNC(=O)c2ccc(Cl)cc2)c1
[12]
  T/C: 90 % of control

## O=C(O)C(O)C(O)C1[O][Sb][O]C1C(=O)O (stereo not drawn)
endpoint: median survival time, dose: 6.25 mg/kg/injection, schedule: Q01DX009 (ip), vehicle: saline
  T/C: 93 % of control
endpoint: median survival time, dose: 12.5 mg/kg/injection, schedule: Q01DX009 (ip), vehicle: saline
  T/C: 102 % of control
endpoint: median survival time, dose: 25.0 mg/kg/injection, schedule: Q01DX009 (ip), vehicle: saline
  T/C: 95 % of control
endpoint: median survival time, dose: 50.0 mg/kg/injection, schedule: Q01DX009 (ip), vehicle: saline
  T/C: 98 % of control

## C=C1C(=O)OC2CC(C)C3CC(O)OC(O)C3(C)CC12 (stereo not drawn)
endpoint: mean survival time, dose: 3.13 mg/kg/injection, schedule: Q01DX005 (ip), vehicle: water
  T/C: 88 % of control
endpoint: mean survival time, dose: 6.25 mg/kg/injection, schedule: Q01DX005 (ip), vehicle: water
  T/C: 94 % of control
endpoint: mean survival time, dose: 12.5 mg/kg/injection, schedule: Q01DX005 (ip), vehicle: water
  T/C: 102 % of control

## NP(=O)(Oc1ccccc1)Oc1ccccc1
[2]
  T/C: 96 % of control
[9]
  T/C: 90 % of control

## CN(c1ccccc1)c1ccc(N=Nc2nc3ccccc3s2)cc1
[6]
  T/C: 95 % of control
[7]
  T/C: 98 % of control
[8]
  T/C: 87 % of control

## c1ccc(COC2CN3CCC2CC3)cc1 (stereo not drawn)
[2]
  T/C: 100 % of control
[3]
  T/C: 100 % of control

## COc1ccc(CN(CCO)Cc2ccccc2)cc1OC
[3]
  T/C: 100 % of control
[12]
  T/C: 90 % of control
[9]
  T/C: 98 % of control
[13]
  T/C: 100 % of control
[10]
  T/C: 97 % of control

## CCOC(=O)C1CC(=O)C(C(=O)OCC)CC1=O (stereo not drawn)
[12]
  T/C: 100 % of control
endpoint: mean survival time, dose: 100.0 mg/kg/injection, schedule: Q04DX002 (ip), vehicle: saline with Tween-80
  T/C: 107 % of control
[9]
  T/C: 100 % of control
[13]
  T/C: 97 % of control
endpoint: mean survival time, dose: 200.0 mg/kg/injection, schedule: Q04DX002 (ip), vehicle: saline with Tween-80
  T/C: 98 % of control
[10]
  T/C: 93 % of control
endpoint: mean survival time, dose: 400.0 mg/kg/injection, schedule: Q01DX009 (ip), vehicle: saline with Tween-80
  T/C: 97 % of control
endpoint: mean survival time, dose: 400.0 mg/kg/injection, schedule: Q04DX002 (ip), vehicle: saline with Tween-80
  T/C: 102 % of control
[11]
  T/C: 98 % of control

## [Co].[N-]=C=S.[N-]=C=S.[N-]=C=S.[NH2-].[NH2-].[NH2-]
endpoint: mean survival time, dose: 50.0 mg/kg/injection, schedule: Q01DX001 (ip), vehicle: saline with Tween-80
  T/C: 98 % of control and 101 % of control
